Test results as given in patent US8530489B2 (Vertex Pharmaceuticals Incorporated, priority 2006, dated 2013).

target: PLK1 (Homo sapiens, UniProt P53350); assay: PLK1 Inhibition Assay I (radioactive-phosphate incorporation); assay type: biochemical; settings: Ki(app); PLK1 Inhibition Assay I or II (table does not say which)
Procedure: The compounds of the present invention are evaluated as inhibitors of human PLK kinase using the following assays.
Compounds were screened for their ability to inhibit PLK1 using a radioactive-phosphate incorporation assay. Assays were carried out in a mixture of 25 mM HEPES (pH 7.5), 10 mM MgCl2, and 1 mM DTT. Final substrate concentrations were 350 μM [γ-33P]ATP (136 mCi 33P ATP/mmol ATP, Amersham Pharmacia Biotech/Sigma Chemicals) and 450 μM peptide (KKKISDELMDATFADQEAK) [SEQ. ID:1]. Assays were carried out at 25° C. in the presence of 2 nM PLK1. An assay stock buffer solution was prepared containing all of the reagents listed above, with the exception of ATP and the test compound of interest. 30 μL of the stock solution was placed in a 96 well plate followed by addition of 2 μL of DMSO stock containing serial dilutions of the test compound (typically starting from a final concentration of 10 μM with 2-fold serial dilutions) in duplicate (final DMSO concentration 5%). The plate was pre-incubated for 10 minutes at 25° C. and the reaction initiated by addition of 8 μL [γ-33P]ATP (final concentration 350 μM).
The reaction was stopped after 240 minutes by the addition of 100 μL 0.14M phosphoric acid. A multiscreen phosphocellulose filter 96-well plate (Millipore, Cat No. MAPHN0B50) was pretreated with 100 μL 0.1 M phosphoric acid prior to the addition of 125 μL of the stopped assay mixture. The plate was washed with 4×200 μL 0.1 M phosphoric acid. After drying, 100 μL Optiphase ‘SuperMix’ liquid scintillation cocktail (Perkin Elmer) was added to the well prior to scintillation counting (1450 Microbeta Liquid Scintillation Counter, Wallac).
After removing mean background values for all of the data points, Ki(app) data were calculated from non-linear regression analysis of the initial rate data using the Prism software package (GraphPad Prism version 3.0cx for Macintosh, GraphPad Software, San Diego Calif., USA).

Chain of PLK1 (P53350 whole entry): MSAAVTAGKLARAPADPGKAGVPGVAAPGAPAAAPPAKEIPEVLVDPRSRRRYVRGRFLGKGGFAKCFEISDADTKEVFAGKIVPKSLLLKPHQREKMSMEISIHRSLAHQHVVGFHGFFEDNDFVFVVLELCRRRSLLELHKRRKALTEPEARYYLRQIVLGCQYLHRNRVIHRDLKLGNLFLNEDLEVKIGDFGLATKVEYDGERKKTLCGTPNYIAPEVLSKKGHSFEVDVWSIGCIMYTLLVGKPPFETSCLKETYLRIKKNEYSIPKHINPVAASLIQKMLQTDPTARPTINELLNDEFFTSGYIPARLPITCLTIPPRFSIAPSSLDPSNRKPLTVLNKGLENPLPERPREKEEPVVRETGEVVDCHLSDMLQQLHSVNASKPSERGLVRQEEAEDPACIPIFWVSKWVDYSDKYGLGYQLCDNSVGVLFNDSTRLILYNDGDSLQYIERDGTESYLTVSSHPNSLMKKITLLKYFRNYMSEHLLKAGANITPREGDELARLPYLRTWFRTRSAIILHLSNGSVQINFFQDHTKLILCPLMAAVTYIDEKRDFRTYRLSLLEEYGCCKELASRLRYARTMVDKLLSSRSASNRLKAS

| SMILES | Ki [nM] |
| --- | --- |
| COc1ccc(C(C)Nc2ncc(C#N)c(-c3c[nH]c4ncc(C(F)(F)F)cc34)n2)cc1Cl (stereo not drawn) [Compound I-84, 2-(1-(3-chloro-4-methoxyphenyl)ethylamino)-4-(5-(trifluoromethyl)-1H-pyrrolo[2,3-b]pyridin-3-yl)pyrimidine-5-carbonitrile] | < 3 |
| C[C@@H](Nc1ncc(C#N)c(-c2c[nH]c3ncc(C(F)(F)F)cc23)n1)c1ccc(O)cc1 [Compound I-99, 2-((R)-1-(4-hydroxyphenyl)ethylamino)-4-(5-(trifluoromethyl)-1H-pyrrolo[2,3-b]pyridin-3-yl)pyrimidine-5-carbonitrile] | < 3 |
| N#Cc1cnc(NCc2ccc(F)cc2)nc1-c1c[nH]c2ncc(C(F)(F)F)cc12 [Compound I-22, 2-(4-fluorobenzylamino)-4-(5-(trifluoromethyl)-1H-pyrrolo[2,3-b]pyridin-3-yl)pyrimidine-5-carbonitrile] | > 40 |
| N#Cc1cnc(NCCc2ccccc2)nc1-c1c[nH]c2ncc(C(F)(F)F)cc12 [Compound I-7, 2-(phenethylamino)-4-(5-(trifluoromethyl)-1H-pyrrolo[2,3-b]pyridin-3-yl)pyrimidine-5-carbonitrile] | > 40 |
| CC(C)(C)[C@@H](CO)Nc1ncc(C#N)c(-c2c[nH]c3ncc(C(F)(F)F)cc23)n1 [Compound I-111, 2-((S)-1-hydroxy-3,3-dimethylbutan-2-ylamino)-4-(5-(trifluoromethyl)-1H-pyrrolo[2,3-b]pyridin-3-yl)pyrimidine-5-carbonitrile] | < 3 |

The next lines start with the values.

| Ki [nM] | SMILES |
| --- | --- |
| < 3 | CC(Nc1ncc(C#N)c(-c2c[nH]c3ncc(C(F)(F)F)cc23)n1)c1ccc(N2CCC(O)CC2)nc1 (stereo not drawn) [Compound I-162, 2-(1-(6-(4-hydroxypiperidin-1-yl)pyridin-3-yl)ethylamino)-4-(5-(trifluoromethyl)-1H-pyrrolo[2,3-b]pyridin-3-yl)pyrimidine-5-carbonitrile] |
| 3 to 40 | C[C@@H](Nc1ncc(C#N)c(-c2c[nH]c3ncc(C(F)(F)F)cc23)n1)c1ccc(C(=O)NC2CC2)cc1 [Compound I-171, 4-((1R)-1-(5-cyano-4-(5-(trifluoromethyl)-1H-pyrrolo[2,3-b]pyridin-3-yl)pyrimidin-2-ylamino)ethyl)-N-cyclopropylbenzamide] |
| < 3 | CCOc1ccc(C(C)Nc2ncc(C#N)c(-c3c[nH]c4ncc(C(F)(F)F)cc34)n2)cc1 (stereo not drawn) [Compound I-112, 2-(1-(4-ethoxyphenyl)ethylamino)-4-(5-(trifluoromethyl)-1H-pyrrolo[2,3-b]pyridin-3-yl)pyrimidine-5-carbonitrile] |
| < 3 | C[C@H](O)[C@@H](N)C(=O)N1CCC([C@@H](C)Nc2ncc(C#N)c(-c3c[nH]c4ncc(C(F)(F)F)cc34)n2)CC1 [Compound I-249, 2-((R)-1-(1-((2R,3S)-2-amino-3-hydroxybutanoyl)piperidin-4-yl)ethylamino)-4-(5-(trifluoromethyl)-1H-pyrrolo[2,3-b]pyridin-3-yl)pyrimidine-5-carbonitrile] |
| < 3 | C[C@H](O)C(=O)N1CCC([C@@H](C)Nc2ncc(C#N)c(-c3c[nH]c4ncc(C(F)(F)F)cc34)n2)CC1 [Compound I-228, 2-((R)-1-(1-((S)-2-hydroxypropanoyl)piperidin-4-yl)ethylamino)-4-(5-(trifluoromethyl)-1H-pyrrolo[2,3-b]pyridin-3-yl)pyrimidine-5-carbonitrile] |
| < 3 | C[C@@H](Nc1ncc(C#N)c(-c2c[nH]c3ncc(C(F)(F)F)cc23)n1)C1CCN(C(=O)CCN)CC1 [Compound I-224, 2-((R)-1-(1-(3-aminopropanoyl)piperidin-4-yl)ethylamino)-4-(5-(trifluoromethyl)-1H-pyrrolo[2,3-b]pyridin-3-yl)pyrimidine-5-carbonitrile] |
| < 3 | C[C@H](Nc1ncc(C#N)c(-c2c[nH]c3ncc(C(F)(F)F)cc23)n1)c1ccc(O[C@H]2CCN(C)C2)cc1 [Compound I-161, 2-((S)-1-(4-((S)-1-methylpyrrolidin-3-yloxy)phenyl)ethylamino)-4-(5-(trifluoromethyl)-1H-pyrrolo[2,3-b]pyridin-3-yl)pyrimidine-5-carbonitrile] |
